Assays:
Bcl-xL = Bcl-xL (Homo sapiens, UniProt Q07817); settings: Kitada et al., 2003; cited from earlier work
Vero cells = assay: Toxicity to Vero cells, Cell Titer 96 Aqueous Cell Proliferation Assay
[1] = Toxicity, Neutral Red Uptake; settings: host cells

Bcl-xL, sequence (Q07817 whole entry): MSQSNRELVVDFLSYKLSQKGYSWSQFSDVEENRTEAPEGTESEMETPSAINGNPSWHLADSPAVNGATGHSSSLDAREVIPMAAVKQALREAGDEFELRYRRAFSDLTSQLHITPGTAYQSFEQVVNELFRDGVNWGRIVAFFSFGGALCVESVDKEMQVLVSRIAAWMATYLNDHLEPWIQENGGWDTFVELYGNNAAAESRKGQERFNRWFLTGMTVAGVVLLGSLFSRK

Molecule: O=C(O[C@@H]1Cc2c(O)cc(O)cc2O[C@H]1c1ccc(O)c(O)c1)c1cc(O)c(O)c(O)c1 [CG, catechin-3 gallate]
- Ki (Bcl-xL): nanomolar range

Molecule: epicatechin-3 gallate [ECG]
- Ki (Bcl-xL): nanomolar range

Molecule: O=C(O[C@@H]1Cc2c(O)cc(O)cc2O[C@@H]1c1cc(O)c(O)c(O)c1)c1cc(O)c(O)c(O)c1 [Reduced EGCG]
- Cell Titer 96 assay reading, mean ± SD (Vero cells; 50 μM, 24 hours after addition): 0.753 ± 0.027
- Cell Titer 96 assay reading, mean ± SD (Vero cells; 50 μM, 48 hours after addition): 0.750 ± 0.033
- Cell Titer 96 assay reading, mean ± SD (Vero cells; 75 μM, 24 hours after addition): 0.685 ± 0.052
- Cell Titer 96 assay reading, mean ± SD (Vero cells; 75 μM, 48 hours after addition): 0.706 ± 0.026
- Cell Titer 96 assay reading, mean ± SD (Vero cells; 100 μM, 24 hours after addition): 0.700 ± 0.043
- Cell Titer 96 assay reading, mean ± SD (Vero cells; 100 μM, 48 hours after addition): 0.705 ± 0.019

Molecule: Nc1nc2c(ncn2COCCO)c(=O)[nH]1 [ACV]
- CC50 [1]: > 100 µg/mL

Molecule: O=C(O[C@@H]1Cc2c(O)cc(O)cc2O[C@H]1c1cc(O)c(O)c(O)c1)c1cc(O)c(O)c(O)c1 [GCG, gallocatechin-3 gallate]
- Ki (Bcl-xL): nanomolar range

Reference: patent publication US20100021989A1, “COMPOSITIONS AND METHODS OF CONTROLLING AND ADMINISTERING REDOX SPECIFIC FORMS OF DRUGS, FOODS AND DIETARY SUPPLEMENTS” (priority 2008, published 2010)
